Results reported in the NIST ThermoML archive (doi:10.1021/acs.jced.7b00008).
± gives the expanded uncertainty stated by the source.

Settings: Liquid, Ebulliometric method (Recirculating still)

| vapor or sublimation pressure (475.01 K) [kPa] | vapor or sublimation pressure (488.81 K) [kPa] | vapor or sublimation pressure (499.14 K) [kPa] | Structure (SMILES) | vapor or sublimation pressure (420.11 K) [kPa] | vapor or sublimation pressure (432.89 K) [kPa] | vapor or sublimation pressure (442.63 K) [kPa] |
| --- | --- | --- | --- | --- | --- | --- |
| 20 ± 0.6 | 30 ± 0.6 | 40 ± 0.6 | O=C1CCC(=O)O1 [succinic anhydride] |  |  |  |
|  |  |  | O=C1CCCO1 [γ-butyrolactone] | 20 ± 0.6 | 30 ± 0.6 | 40 ± 0.6 |
